Experimental findings from patent US20240239861A1, “GLUCAGON-RECEPTOR SELECTIVE POLYPEPTIDES AND METHODS OF USE THEREOF” (i2O Therapeutics, Inc., priority 2016, published 2024) are described below.

The structures appear in SMILES notation. Read-outs that look alike come from different tables or passages of the source. *1 amine or outer side, *2 acyl side, *3 side chain or, on linkers, in order; H or OH if unused. Where a SMILES comes first, the peptide text is derived from it. Side-chain parts run from the residue outwards. [ ]: non-standard residue; d: D form. The star is where a group is joined. γGlu = O=C(O)[C@H](CCC(=O)[*:2])N[*:1]; Palmitoyl = CCCCCCCCCCCCCCCC(=O)*; Aib = CC(C)(N)C(=O)O A value given as a limit tells only on which side of the number the result lay.

The target of assay [1] is human GLP-1R (Homo sapiens, UniProt P43220). Nature of the assay: Peptide-receptor mediated cAMP accumulation (LANCE Ultra cAMP) in CHO-K1 cells transfected with human GLP-1R. It is filed as cell-based. (Cyclic AMP is a second messenger, typically raised through Gs and lowered through Gi signalling.)
human GLP-1R, sequence (P43220 24-463): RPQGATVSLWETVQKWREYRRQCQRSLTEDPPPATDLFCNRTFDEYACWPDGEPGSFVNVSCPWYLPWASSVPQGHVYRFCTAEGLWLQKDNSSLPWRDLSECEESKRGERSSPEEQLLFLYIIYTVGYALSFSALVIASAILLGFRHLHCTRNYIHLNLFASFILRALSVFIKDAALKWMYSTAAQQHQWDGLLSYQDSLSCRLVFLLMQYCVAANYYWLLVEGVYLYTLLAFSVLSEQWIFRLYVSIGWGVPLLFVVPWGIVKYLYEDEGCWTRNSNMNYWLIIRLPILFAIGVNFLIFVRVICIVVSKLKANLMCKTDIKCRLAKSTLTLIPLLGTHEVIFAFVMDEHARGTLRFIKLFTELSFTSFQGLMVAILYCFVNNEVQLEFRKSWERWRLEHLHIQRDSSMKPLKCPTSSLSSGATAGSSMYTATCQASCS
Assay [2] has as its target human GCGR (Homo sapiens, UniProt P47871). Nature of the assay: Peptide-receptor mediated cAMP accumulation (LANCE Ultra cAMP) in CHO-K1 cells transfected with human GCGR. It is filed as cell-based.
Where [3] appears, read: Table 7, GLP-1R, read-out: GLP-1R pEC50 (converted).
Setting [4] is: read-out: GluR pEC50 (converted).

human GCGR, sequence (P47871 26-477): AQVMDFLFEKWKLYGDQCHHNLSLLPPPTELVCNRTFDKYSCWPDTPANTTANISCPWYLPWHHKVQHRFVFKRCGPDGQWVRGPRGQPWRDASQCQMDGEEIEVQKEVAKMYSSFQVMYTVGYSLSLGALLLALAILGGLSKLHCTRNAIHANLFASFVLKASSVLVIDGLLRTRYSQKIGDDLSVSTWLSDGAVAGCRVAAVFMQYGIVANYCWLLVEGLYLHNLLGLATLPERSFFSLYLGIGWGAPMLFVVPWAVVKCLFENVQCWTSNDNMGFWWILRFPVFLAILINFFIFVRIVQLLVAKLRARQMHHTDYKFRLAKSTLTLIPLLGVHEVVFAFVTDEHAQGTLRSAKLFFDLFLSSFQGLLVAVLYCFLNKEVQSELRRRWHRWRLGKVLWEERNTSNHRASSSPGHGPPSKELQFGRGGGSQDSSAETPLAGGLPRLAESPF

For the molecule `CCCCCCCCCCCCCCCC(=O)N[C@@H](CCC(=O)NCCCC[C@H](NC(=O)[C@H](CC(=O)O)NC(=O)[C@H](CO)NC(=O)[C@@H](NC(=O)[C@H](Cc1ccccc1)NC(=O)[C@@H](NC(=O)CNC(=O)[C@H](CCC(N)=O)NC(=O)[C@H](CO)NC(=O)[C@@H](N)Cc1c[nH]c2ccccc12)[C@@H](C)O)[C@@H](C)O)C(=O)N[C@@H](CO)C(=O)N[C@@H](CCCCN)C(=O)N[C@@H](Cc1ccc(O)cc1)C(=O)N[C@@H](CC(C)C)C(=O)N[C@@H](CC(=O)O)C(=O)NC(C)(C)C(=O)N[C@@H](CCCCN)C(=O)N[C@@H](CCCNC(=N)N)C(=O)N[C@@H](C)C(=O)N[C@@H](CCC(N)=O)C(=O)N[C@@H](CCC(=O)O)C(=O)N[C@@H](Cc1ccccc1)C(=O)N[C@H](C(=O)NC(C)(C)C(=O)N[C@@H](Cc1c[nH]c2ccccc12)C(=O)N[C@@H](CC(C)C)C(=O)N[C@@H](CCC(=O)O)C(=O)N[C@@H](CC(=O)O)C(=O)N[C@@H](CCC(=O)O)C(=O)N1CCC[C@H]1C(=O)N[C@@H](CO)C(=O)N[C@@H](CO)C(=O)NCC(=O)N[C@@H](C)C(=O)N1CCC[C@H]1C(=O)N1CCC[C@H]1C(=O)N1CCC[C@H]1C(=O)N[C@@H](CO)C(=O)O)C(C)C)C(=O)O` [Compound B20] (H-WSQGTFTSDK([γGlu-Palmitoyl])SKYLD[Aib]KRAQEFV[Aib]WLEDEPSSGAPPPS-OH), the EC50 in assay [1] (setting [3]) was 316 nM; in assay [2] (setting [4]), 0.00794 nM.
Turning to `CC(C)C[C@H](NC(=O)[C@H](CCCCN)NC(=O)C(C)(C)NC(=O)[C@H](CC(=O)O)NC(=O)[C@H](CC(C)C)NC(=O)[C@H](Cc1ccc(O)cc1)NC(=O)[C@H](CCCCN)NC(=O)[C@H](CO)NC(=O)[C@H](Cc1ccc(O)cc1)NC(=O)[C@H](CC(=O)O)NC(=O)[C@H](CO)NC(=O)[C@@H](NC(=O)[C@H](Cc1ccccc1)NC(=O)[C@@H](NC(=O)CNC(=O)[C@H](Cc1c[nH]cn1)NC(=O)[C@H](CO)NC(=O)[C@@H](N)Cc1ccc(O)cc1)[C@@H](C)O)[C@@H](C)O)C(=O)N[C@@H](C)C(=O)N[C@@H](CCC(N)=O)C(=O)N[C@@H](CCC(=O)O)C(=O)N[C@@H](Cc1ccccc1)C(=O)N[C@H](C(=O)NC(C)(C)C(=O)N[C@@H](Cc1c[nH]c2ccccc12)C(=O)N[C@@H](CC(C)C)C(=O)N[C@@H](CCC(=O)O)C(=O)N[C@@H](CC(=O)O)C(=O)N[C@@H](CCC(=O)O)C(=O)N1CCC[C@H]1C(=O)N[C@@H](CO)C(=O)N[C@@H](CO)C(=O)NCC(=O)N[C@@H](C)C(=O)N1CCC[C@H]1C(=O)N1CCC[C@H]1C(=O)N1CCC[C@H]1C(=O)N[C@@H](CO)C(=O)O)C(C)C` [Compound A78] (H-YSHGTFTSDYSKYLD[Aib]KLAQEFV[Aib]WLEDEPSSGAPPPS-OH; N-terminus assumed), the EC50 in assay [1] (hGLP1 pEC50 (cAMP mean (n = 3): 11 point curve starting at 1 nM, Table 3)) is above 1 nM; in assay [2] (Table 3) it was 0.0158 nM.
As to `CCCCCCCCCCCCCCCC(=O)N[C@@H](CCC(=O)NCCCC[C@H](NC(=O)[C@H](CC(=O)O)NC(=O)[C@H](CC(C)C)NC(=O)[C@H](Cc1ccc(O)cc1)NC(=O)[C@H](CCCCN)NC(=O)[C@H](CO)NC(=O)[C@H](Cc1ccc(O)cc1)NC(=O)[C@H](CC(=O)O)NC(=O)[C@H](CO)NC(=O)[C@@H](NC(=O)[C@H](Cc1ccccc1)NC(=O)[C@@H](NC(=O)CNC(=O)[C@H](CCC(N)=O)NC(=O)[C@H](CO)NC(=O)[C@@H](N)Cc1c[nH]c2ccccc12)[C@@H](C)O)[C@@H](C)O)C(=O)N[C@@H](CCCCN)C(=O)N[C@@H](CCCNC(=N)N)C(=O)N[C@@H](C)C(=O)N[C@@H](CCC(N)=O)C(=O)N[C@@H](CCC(=O)O)C(=O)N[C@@H](Cc1ccccc1)C(=O)N[C@H](C(=O)NC(C)(C)C(=O)N[C@@H](Cc1c[nH]c2ccccc12)C(=O)N[C@@H](CC(C)C)C(=O)N[C@@H](CCC(=O)O)C(=O)N[C@@H](CC(=O)O)C(=O)N[C@@H](CCC(=O)O)C(=O)N1CCC[C@H]1C(=O)N[C@@H](CO)C(=O)N[C@@H](CO)C(=O)NCC(=O)N[C@@H](C)C(=O)N1CCC[C@H]1C(=O)N1CCC[C@H]1C(=O)N1CCC[C@H]1C(=O)N[C@@H](CO)C(=O)O)C(C)C)C(=O)O` [Compound B19] (H-WSQGTFTSDYSKYLDK([γGlu-Palmitoyl])KRAQEFV[Aib]WLEDEPSSGAPPPS-OH), the EC50 is 501 nM in assay [1] (setting [3]) and 0.0251 nM in assay [2] (setting [4]).
As to `CCCCCCCCCCCCCCCC(=O)N[C@@H](CCC(=O)NCCCC[C@H](NC(=O)[C@H](CC(=O)O)NC(=O)[C@H](CO)NC(=O)[C@@H](NC(=O)[C@H](Cc1ccccc1)NC(=O)[C@@H](NC(=O)CNC(=O)[C@H](Cc1c[nH]cn1)NC(=O)[C@H](CO)NC(=O)[C@@H](N)Cc1ccc(O)cc1)[C@@H](C)O)[C@@H](C)O)C(=O)N[C@@H](CO)C(=O)N[C@@H](CCCCN)C(=O)N[C@@H](Cc1ccc(O)cc1)C(=O)N[C@@H](CC(C)C)C(=O)N[C@@H](CC(=O)O)C(=O)NC(C)(C)C(=O)N[C@@H](CCCCN)C(=O)N[C@@H](CO)C(=O)N[C@@H](C)C(=O)N[C@@H](CCC(N)=O)C(=O)N[C@@H](CCC(=O)O)C(=O)N[C@@H](Cc1ccccc1)C(=O)N[C@H](C(=O)NC(C)(C)C(=O)N[C@@H](Cc1c[nH]c2ccccc12)C(=O)N[C@@H](CC(C)C)C(=O)N[C@@H](CCC(=O)O)C(=O)N[C@@H](CC(=O)O)C(=O)N[C@@H](CCC(=O)O)C(=O)N1CCC[C@H]1C(=O)N[C@@H](CO)C(=O)N[C@@H](CO)C(=O)NCC(=O)N[C@@H](C)C(=O)N1CCC[C@H]1C(=O)N1CCC[C@H]1C(=O)N1CCC[C@H]1C(=O)N[C@@H](CO)C(=O)O)C(C)C)C(=O)O` [Compound B12] (H-YSHGTFTSDK([γGlu-Palmitoyl])SKYLD[Aib]KSAQEFV[Aib]WLEDEPSSGAPPPS-OH), the EC50 is 63.1 nM in assay [1] (setting [3]) and 0.00316 nM in assay [2] (setting [4]).
Regarding `CCCCCCCCCCCCCCCC(=O)N[C@@H](CCC(=O)NCCCC[C@H](NC(=O)[C@H](CO)NC(=O)[C@H](CO)NC(=O)[C@@H]1CCCN1C(=O)[C@H](CCC(=O)O)NC(=O)[C@H](CC(=O)O)NC(=O)[C@H](CCC(=O)O)NC(=O)[C@H](CC(C)C)NC(=O)[C@H](Cc1c[nH]c2ccccc12)NC(=O)[C@@H](NC(=O)[C@@H](NC(=O)[C@H](Cc1ccccc1)NC(=O)[C@H](CCC(=O)O)NC(=O)[C@H](CCC(N)=O)NC(=O)[C@H](C)NC(=O)[C@H](CCCNC(=N)N)NC(=O)[C@H](CCCCN)NC(=O)C(C)(C)NC(=O)[C@H](CC(=O)O)NC(=O)[C@H](CC(C)C)NC(=O)[C@H](Cc1ccc(O)cc1)NC(=O)[C@H](CCCCN)NC(=O)[C@H](CO)NC(=O)[C@H](Cc1ccc(O)cc1)NC(=O)[C@H](CC(=O)O)NC(=O)[C@H](CO)NC(=O)[C@@H](NC(=O)[C@H](Cc1ccccc1)NC(=O)[C@@H](NC(=O)CNC(=O)[C@H](Cc1c[nH]cn1)NC(=O)[C@H](CO)NC(=O)[C@@H](N)Cc1ccc(O)cc1)[C@@H](C)O)[C@@H](C)O)C(C)C)[C@@H](C)CC)C(=O)N[C@@H](C)C(=O)N1CCC[C@H]1C(=O)N1CCC[C@H]1C(=O)N1CCC[C@H]1C(=O)N[C@@H](CO)C(=O)O)C(=O)O` [Compound B25], the results for the EC50 in assay [1] (setting [3]) and in assay [2] (setting [4]) were above 1000 nM and 0.0316 nM, respectively.
